Results: patent US7105534B2, “Imidazo[1,2-α]pyridine ether compounds as ion channel modulators” (Cardiome Pharma Corp., priority 2000, dated 2006)

How the values were obtained:
Kv4.2 = target: T1, Kv4.2 (Homo sapiens, UniProt Q9NZV8); experiment: Patch-clamp inhibition of cloned ion channel current in transfected HEK cells: Kv4.2; type: cell-based; details: integrated current, -80 mV to +60 mV
T1 construct: expressed in transfected cells; host or cells: HEK cells, transient transfection, vector pCDNA3
T1 sequence (Q9NZV8 1-630): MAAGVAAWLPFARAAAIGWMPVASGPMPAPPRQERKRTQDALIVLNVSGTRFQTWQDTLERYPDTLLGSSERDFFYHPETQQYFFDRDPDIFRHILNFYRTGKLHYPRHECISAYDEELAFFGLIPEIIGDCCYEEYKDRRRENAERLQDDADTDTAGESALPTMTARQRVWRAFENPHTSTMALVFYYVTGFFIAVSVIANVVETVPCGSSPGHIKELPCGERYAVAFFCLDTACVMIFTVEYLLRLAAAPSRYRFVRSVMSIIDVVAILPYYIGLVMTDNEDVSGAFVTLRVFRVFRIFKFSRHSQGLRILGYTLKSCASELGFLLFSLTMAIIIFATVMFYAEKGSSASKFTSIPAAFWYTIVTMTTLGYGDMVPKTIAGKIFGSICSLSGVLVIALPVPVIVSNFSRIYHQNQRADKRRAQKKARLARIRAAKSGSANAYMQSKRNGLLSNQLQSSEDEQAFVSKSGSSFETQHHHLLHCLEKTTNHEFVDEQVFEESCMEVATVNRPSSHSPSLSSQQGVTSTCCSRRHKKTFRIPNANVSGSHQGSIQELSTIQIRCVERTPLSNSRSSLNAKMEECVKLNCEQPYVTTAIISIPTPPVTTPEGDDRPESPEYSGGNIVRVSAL
Protocol: The relevant cloned ion channels (e.g. cardiac hH1, Kv1.4, Kv1.5, Kv4.2, Kv2.1, HERG etc.) are studied by transient transfection into HEK cells using the mammalian expression vector pCDNA3. Transfections for each channel type are carried out separately to allow individual study of the ion channel of interest. Cells expressing channel protein are detected by cotransfecting cells with the vector pHook-1 (Invitrogen, San Diego, Calif., USA). […] Equal concentrations of individual channel and pHook DNA are incubated with 10× concentration of lipofectAce in Modified Eagle's Medium (MEM, Canadian Life Technologies) and incubated with parent HEK cells plated on 25 mm culture dishes. After 3–4 hours the solution is replaced with a standard culture medium plus 20% fetal bovine serum and 1% antimycotic. Transfected cells are maintained at 37C in an air/5% CO2 incubator in 25 mm Petri dishes plated on glass coverslips for 24–48 hours to allow channel expression to occur. 20 min prior to experiments, cells are treated with beads coated with phOX. After 15 min, excess beads are […] off with cell culture medium and cells which had beads stuck to them are used for electrophysiological tests.
For whole-cell recording the control pipette filling solution contained (in mM): KCl, 130; EGTA, 5; MgCl2, 1; HEPES, 10; Na2ATP, 4; GTP, 0.1; and is adjusted to pH 7.2 with KOH. The control bath solution contained (in mM): NaCl, 135; KCI, 5; sodium acetate, 2.8; MgCl2, 1; HEPES, 10; CaCl2, 1; and is adjusted to pH 7.4 with NaOH. The test ion channel modulating compound is dissolved to 10 mM stock solutions in water and used at concentrations between 0.5 and 100 μM.
Coverslips containing cells are removed from the incubator before experiments and placed in a superfusion chamber (volume 250 μl) containing the control bath solution at 22C to 23C. All recordings are made via the variations of the patch-clamp technique, using an Axopatch 200A amplifier (Axon Instruments, CA). Patch electrodes are pulled from thin-walled borosilicate glass (World Precision Instruments; FL) on a horizontal micropipette puller, fire-polished, and filled with appropriate solutions. Electrodes had resistances of […] when filled with control filling solution. Analog capacity compensation is used in all whole cell measurements. In some experiments, leak subtraction is applied to data. Membrane potentials have not been corrected for any junctional potentials that arose between the pipette and bath solution. Data are filtered at 5 to 10 kHz before digitization and stored on a microcomputer for later analysis using the pClamp6 software (Axon Instruments, Foster City, Calif.). Due to the high level of expression of channel cDNA's in HEK cells, there is no need for signal averaging. The average cell capacitance is quite small, and the absence of ionic current at negative membrane potentials allowed faithful leak subtraction of data.
The concentration-response curves for changes in peak and steady-state current produced by the test compound are computer-fitted to the Hill equation: f=1−1/[1+([…])^n] [1]
where f is the fractional current (f=Idrug/Icontrol) at drug concentration [D]; IC50 is the concentration producing half-maximal inhibition and n is the Hill coefficient.
Compounds of the present invention may be evaluated by this method. […] Block is determined from the decrease in peak hH1 Na^+ current, or in steady-state Kv1.5 and integrated Kv4.2 current in the presence of drug. To record Na^+ current, cells are depolarized from the holding potential of −100 mV to a voltage of −30 mV for 10 ms to fully open and inactivate the channel. To record Kv1.5 and Kv4.2 current, cells are depolarized from the holding potential of −80 mV to a voltage of +60 mV for 200 ms to fully open the channel. Currents are recorded in the steady-state at a range of drug concentrations during stimulation every 4 s. […]

HERG = target: T2, HERG (Homo sapiens, UniProt Q12809); experiment: Patch-clamp inhibition of cloned ion channel current in transfected HEK cells: HERG; type: cell-based; details: whole-cell patch clamp
T2 construct: expressed in transfected cells; host or cells: HEK cells, transient transfection, vector pCDNA3
Summary of the method: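 HERG channels were expressed by transient lipofection of HEK cells with pCDNA3 plus the pHook-1 marker, and bead-tagged cells were selected after 24–48 hours. Whole-cell currents were recorded at 22C to 23C with an Axopatch 200A in KCl pipette and NaCl bath solutions. Compound was applied at 0.5 to 100 μM, and IC50 came from Hill equation fits.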

T2 sequence (Q12809 whole entry): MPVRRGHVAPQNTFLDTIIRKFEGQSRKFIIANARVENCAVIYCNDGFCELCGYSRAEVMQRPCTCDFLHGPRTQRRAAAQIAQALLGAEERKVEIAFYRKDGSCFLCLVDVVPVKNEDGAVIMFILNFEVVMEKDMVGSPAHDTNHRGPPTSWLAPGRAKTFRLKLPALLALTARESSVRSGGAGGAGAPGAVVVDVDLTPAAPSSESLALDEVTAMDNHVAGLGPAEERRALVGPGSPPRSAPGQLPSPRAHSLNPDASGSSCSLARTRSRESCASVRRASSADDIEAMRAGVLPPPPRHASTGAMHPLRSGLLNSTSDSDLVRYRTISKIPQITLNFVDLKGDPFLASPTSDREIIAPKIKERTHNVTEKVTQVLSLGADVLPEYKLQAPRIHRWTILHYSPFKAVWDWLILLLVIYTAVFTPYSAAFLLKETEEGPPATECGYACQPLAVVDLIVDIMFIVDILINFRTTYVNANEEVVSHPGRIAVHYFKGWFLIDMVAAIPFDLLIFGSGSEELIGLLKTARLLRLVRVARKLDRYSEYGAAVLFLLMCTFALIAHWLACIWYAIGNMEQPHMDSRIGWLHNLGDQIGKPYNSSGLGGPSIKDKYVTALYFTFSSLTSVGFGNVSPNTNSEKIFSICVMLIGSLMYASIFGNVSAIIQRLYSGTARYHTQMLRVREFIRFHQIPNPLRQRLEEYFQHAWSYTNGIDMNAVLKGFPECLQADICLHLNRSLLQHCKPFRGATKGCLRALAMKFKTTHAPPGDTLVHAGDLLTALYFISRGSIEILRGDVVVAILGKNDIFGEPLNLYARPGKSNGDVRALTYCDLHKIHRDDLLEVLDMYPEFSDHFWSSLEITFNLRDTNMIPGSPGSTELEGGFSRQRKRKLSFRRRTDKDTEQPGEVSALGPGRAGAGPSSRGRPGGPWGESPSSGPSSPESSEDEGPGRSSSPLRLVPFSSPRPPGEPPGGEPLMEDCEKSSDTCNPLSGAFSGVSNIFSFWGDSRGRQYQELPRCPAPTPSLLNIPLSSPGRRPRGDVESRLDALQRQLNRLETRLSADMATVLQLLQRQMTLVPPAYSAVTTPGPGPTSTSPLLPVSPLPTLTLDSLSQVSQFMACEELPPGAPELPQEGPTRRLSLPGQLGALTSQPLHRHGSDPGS

IC50 (Kv4.2): 13 µM
Compound: COc1ccc(CCCOc2cccn3cc(C)nc23)cc1OC [Compound 3, 8-[3-(3,4-DIMETHOXYPHENYL)PROPOXY]-2-METHYLIMIDAZO[1,2-α]PYRIDINE MONOHYDROCHLORDE]
IC50 (HERG): 0.6 µM
